Values joined by “and” are separate entries in the source; they are usually repeats but may differ in a detail not shown here. Equal entries are not always repeated. Where two headings read alike, the source gives them in different places.
Tests used:
Format in all cases: cell-based
[1] = biological target: protein kinases (human kinome) (Homo sapiens, UniProt P45984)
[2] = biological target: protein kinases (human kinome) (Homo sapiens, UniProt O43683); settings: for logFC: BUB1 (O43683); for logFC BUB1 (O43683): direction down; for BUB1 degradation: MOLT-4 and MM.1S cell lines
Sequence of protein kinases (human kinome) (Homo sapiens, UniProt O43683) (O43683 whole entry): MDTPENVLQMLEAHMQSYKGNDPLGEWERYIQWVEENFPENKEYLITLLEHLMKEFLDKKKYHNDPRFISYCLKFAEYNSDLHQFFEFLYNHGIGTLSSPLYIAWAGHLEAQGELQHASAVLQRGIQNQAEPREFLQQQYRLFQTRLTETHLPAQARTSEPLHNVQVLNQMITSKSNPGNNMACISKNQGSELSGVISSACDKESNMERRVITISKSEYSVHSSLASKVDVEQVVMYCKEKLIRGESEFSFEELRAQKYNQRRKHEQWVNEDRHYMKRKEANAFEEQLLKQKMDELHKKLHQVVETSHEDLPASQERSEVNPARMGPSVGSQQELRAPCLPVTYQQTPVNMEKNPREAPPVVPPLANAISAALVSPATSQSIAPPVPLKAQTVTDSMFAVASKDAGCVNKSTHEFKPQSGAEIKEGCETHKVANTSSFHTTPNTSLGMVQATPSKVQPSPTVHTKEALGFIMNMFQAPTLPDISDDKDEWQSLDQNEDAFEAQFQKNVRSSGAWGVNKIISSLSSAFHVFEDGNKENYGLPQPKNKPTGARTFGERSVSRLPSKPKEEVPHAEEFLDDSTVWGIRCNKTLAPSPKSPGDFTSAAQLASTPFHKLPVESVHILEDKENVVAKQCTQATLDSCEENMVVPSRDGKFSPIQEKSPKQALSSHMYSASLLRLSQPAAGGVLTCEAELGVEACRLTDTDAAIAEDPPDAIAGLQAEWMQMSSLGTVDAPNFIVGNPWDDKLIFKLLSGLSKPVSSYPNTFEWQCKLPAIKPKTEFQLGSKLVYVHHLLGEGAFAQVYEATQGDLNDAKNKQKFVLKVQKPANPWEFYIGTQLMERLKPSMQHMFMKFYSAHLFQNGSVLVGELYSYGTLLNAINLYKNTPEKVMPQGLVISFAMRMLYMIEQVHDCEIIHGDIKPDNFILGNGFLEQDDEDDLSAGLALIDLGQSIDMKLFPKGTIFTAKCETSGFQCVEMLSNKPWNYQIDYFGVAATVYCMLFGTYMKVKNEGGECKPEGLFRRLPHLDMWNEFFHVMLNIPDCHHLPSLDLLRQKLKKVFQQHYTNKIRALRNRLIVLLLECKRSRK

[3] = biological target: protein kinases (human kinome) (Homo sapiens, UniProt Q14289); settings: for logFC: PTK2B (Q14289-1) protein abundance, degrader vs DMSO, down
[4] = biological target: protein kinases (human kinome) (Homo sapiens, UniProt Q9NYV4)
Sequence of protein kinases (human kinome) (Homo sapiens, UniProt Q9NYV4) (Q9NYV4 whole entry): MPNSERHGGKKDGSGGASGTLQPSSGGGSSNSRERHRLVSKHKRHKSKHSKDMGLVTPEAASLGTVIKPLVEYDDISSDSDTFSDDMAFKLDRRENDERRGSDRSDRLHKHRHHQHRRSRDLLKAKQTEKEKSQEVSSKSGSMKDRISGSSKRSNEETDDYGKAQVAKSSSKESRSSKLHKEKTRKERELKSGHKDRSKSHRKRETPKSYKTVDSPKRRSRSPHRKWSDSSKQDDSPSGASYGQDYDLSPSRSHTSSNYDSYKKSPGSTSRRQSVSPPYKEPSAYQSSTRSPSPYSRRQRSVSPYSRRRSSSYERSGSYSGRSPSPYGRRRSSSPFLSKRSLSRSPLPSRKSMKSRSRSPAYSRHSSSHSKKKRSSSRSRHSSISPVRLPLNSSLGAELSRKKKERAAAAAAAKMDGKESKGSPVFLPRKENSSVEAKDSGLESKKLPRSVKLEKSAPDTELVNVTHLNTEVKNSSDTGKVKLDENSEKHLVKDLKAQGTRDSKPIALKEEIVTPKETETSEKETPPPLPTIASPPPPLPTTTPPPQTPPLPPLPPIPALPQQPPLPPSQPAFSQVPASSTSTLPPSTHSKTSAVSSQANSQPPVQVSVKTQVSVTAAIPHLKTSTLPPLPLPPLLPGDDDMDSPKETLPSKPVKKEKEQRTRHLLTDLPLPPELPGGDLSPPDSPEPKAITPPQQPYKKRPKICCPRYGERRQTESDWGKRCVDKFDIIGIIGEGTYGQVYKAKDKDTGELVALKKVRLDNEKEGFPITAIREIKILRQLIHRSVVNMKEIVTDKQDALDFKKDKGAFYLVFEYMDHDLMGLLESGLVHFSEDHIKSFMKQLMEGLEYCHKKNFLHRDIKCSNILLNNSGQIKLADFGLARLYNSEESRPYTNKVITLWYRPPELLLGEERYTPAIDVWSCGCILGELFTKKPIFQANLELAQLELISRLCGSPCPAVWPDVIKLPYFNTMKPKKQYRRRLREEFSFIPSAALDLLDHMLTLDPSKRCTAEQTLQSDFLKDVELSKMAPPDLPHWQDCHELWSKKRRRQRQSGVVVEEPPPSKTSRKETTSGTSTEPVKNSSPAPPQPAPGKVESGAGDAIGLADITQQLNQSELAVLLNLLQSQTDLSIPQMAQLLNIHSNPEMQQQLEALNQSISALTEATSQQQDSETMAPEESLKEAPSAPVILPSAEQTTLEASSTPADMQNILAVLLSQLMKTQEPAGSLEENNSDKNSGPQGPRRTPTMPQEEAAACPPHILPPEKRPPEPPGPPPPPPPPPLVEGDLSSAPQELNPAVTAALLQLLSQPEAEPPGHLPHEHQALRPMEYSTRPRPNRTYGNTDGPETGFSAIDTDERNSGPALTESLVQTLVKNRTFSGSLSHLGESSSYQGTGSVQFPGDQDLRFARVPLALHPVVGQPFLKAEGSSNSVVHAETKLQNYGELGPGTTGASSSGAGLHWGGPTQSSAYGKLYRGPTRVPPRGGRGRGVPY

[5] = biological target: protein kinases (human kinome) (Homo sapiens, UniProt P50613); settings: for logFC: CDK7 (P50613) protein abundance, degrader vs DMSO, down; for logFC CDK7: CDK7 P50613
Sequence of protein kinases (human kinome) (Homo sapiens, UniProt P50613) (P50613 whole entry): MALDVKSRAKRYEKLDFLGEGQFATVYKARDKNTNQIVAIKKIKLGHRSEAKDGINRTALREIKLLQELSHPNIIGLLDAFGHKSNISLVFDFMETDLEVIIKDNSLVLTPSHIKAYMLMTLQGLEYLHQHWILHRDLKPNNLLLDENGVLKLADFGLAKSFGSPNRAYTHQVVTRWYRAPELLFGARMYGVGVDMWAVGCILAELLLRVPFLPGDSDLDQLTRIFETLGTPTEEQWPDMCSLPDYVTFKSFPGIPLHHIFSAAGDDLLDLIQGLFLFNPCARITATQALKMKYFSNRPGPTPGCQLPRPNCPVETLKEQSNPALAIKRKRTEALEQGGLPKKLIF

[6] = biological target: protein kinases (human kinome) (Homo sapiens, UniProt Q14004); settings: for logFC CDK13: Accession Q14004-1
Sequence of protein kinases (human kinome) (Homo sapiens, UniProt Q14004) (Q14004 whole entry): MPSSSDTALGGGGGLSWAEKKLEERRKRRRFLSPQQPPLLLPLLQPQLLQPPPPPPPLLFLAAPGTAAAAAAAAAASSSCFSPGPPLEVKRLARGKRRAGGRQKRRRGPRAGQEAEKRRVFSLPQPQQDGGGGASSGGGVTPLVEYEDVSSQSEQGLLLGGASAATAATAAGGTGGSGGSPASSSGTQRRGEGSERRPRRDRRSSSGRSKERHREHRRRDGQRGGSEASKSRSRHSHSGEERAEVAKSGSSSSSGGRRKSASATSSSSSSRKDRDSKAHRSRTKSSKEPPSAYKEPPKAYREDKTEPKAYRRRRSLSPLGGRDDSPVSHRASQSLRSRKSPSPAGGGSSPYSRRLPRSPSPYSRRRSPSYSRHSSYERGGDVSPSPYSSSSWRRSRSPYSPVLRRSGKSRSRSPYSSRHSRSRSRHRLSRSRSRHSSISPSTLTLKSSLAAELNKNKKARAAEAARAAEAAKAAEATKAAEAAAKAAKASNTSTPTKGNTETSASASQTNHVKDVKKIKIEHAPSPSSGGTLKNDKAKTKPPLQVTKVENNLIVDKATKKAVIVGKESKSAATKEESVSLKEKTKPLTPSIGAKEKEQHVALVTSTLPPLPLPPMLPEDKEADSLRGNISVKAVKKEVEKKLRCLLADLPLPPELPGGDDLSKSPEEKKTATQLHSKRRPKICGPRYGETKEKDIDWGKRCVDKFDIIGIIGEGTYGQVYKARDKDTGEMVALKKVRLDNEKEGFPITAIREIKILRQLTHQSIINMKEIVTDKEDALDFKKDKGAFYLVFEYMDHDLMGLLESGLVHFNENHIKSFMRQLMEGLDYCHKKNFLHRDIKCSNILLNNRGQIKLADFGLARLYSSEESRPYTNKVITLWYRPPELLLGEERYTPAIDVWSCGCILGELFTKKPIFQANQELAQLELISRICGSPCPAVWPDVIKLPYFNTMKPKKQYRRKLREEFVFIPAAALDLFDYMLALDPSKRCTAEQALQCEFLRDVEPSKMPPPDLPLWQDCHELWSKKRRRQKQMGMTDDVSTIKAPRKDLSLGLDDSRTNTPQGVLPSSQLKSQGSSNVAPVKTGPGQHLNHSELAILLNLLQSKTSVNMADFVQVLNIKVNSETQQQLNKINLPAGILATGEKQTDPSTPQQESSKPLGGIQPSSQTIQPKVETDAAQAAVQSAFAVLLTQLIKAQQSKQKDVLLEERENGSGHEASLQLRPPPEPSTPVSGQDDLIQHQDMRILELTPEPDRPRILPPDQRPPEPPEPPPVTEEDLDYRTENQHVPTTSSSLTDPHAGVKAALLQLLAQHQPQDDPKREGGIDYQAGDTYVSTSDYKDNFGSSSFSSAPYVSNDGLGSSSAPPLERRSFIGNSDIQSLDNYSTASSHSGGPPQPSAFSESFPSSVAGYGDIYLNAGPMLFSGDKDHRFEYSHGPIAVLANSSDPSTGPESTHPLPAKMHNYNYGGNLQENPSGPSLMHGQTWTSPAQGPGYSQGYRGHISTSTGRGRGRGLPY

[7] = biological target: T1, protein kinases (human kinome) (Homo sapiens, UniProt Q9UEE5); settings: STK17A Q9UEE5
T1 sequence (Q9UEE5 1-414): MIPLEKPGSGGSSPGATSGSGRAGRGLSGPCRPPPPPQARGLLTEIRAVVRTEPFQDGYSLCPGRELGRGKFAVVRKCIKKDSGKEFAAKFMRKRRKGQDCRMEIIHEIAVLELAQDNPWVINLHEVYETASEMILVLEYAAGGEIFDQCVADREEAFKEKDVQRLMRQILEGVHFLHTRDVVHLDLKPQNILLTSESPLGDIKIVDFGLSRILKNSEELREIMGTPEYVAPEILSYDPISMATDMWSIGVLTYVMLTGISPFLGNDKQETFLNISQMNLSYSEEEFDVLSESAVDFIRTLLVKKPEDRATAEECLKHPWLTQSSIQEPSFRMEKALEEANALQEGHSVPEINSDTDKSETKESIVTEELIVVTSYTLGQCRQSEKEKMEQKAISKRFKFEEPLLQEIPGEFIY

[8] = biological target: protein kinases (human kinome) (Homo sapiens, UniProt Q00537); settings: for logFC of CDK17: Accession Q00537; for logFC CDK17 (Q00537): direction of change down
Sequence of protein kinases (human kinome) (Homo sapiens, UniProt Q00537) (Q00537 whole entry): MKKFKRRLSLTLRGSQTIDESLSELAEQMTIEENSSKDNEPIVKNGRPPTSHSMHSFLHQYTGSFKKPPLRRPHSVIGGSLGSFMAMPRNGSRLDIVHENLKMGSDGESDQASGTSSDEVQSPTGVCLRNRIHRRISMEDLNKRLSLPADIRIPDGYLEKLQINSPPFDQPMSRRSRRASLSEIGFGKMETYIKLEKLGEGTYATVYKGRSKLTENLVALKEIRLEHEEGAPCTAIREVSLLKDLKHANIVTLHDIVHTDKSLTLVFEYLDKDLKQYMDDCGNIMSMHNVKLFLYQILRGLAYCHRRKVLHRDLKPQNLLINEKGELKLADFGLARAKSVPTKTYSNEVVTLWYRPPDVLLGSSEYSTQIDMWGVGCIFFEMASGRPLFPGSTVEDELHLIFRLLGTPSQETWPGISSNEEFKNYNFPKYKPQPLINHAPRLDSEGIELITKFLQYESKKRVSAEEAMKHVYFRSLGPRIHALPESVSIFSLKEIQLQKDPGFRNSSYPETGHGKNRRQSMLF

[9] = Experiment wp152, direction of change down
[10] = MAPK9 P45984-1, experiment wp045
[11] = MAPK9 P45984-1, experiment wp103
[12] = MAPK9 P45984-1, experiment wp105
[13] = MAPK9 P45984-1, experiment wp107
[14] = MAPK9 P45984-1, experiment wp114
[15] = MAPK9 P45984-1, experiment wp117
[16] = MAPK9 P45984-1, experiment wp160, 2 hr
[17] = MAPK9 P45984-1, experiment wp160, 4 hr
[18] = MAPK9 P45984-1, experiment wp160, 8 hr
[19] = MAPK9 P45984-1, experiment wp172
[20] = MAPK9 P45984-1, experiment wp168
[21] = Accession Q9NYV4-1, experiment wp146
[22] = CDK12 (Q9NYV4-1), experiment wp146
[23] = MAPK9 P45984-1, experiment wp146
[24] = accession Q14289-1, experiment wp146, direction of change down

Cc1ccc(NC(=O)c2cccc(C(F)(F)F)c2)cc1N1Cc2cnc(Nc3ccc(N4CCN(Cc5cn(CCCCCOc6cccc7c6C(=O)N(C6CCC(=O)NC6=O)C7=O)nn5)CC4)nc3)nc2N(C)C1=O (stereo not shown) [DB0646, N-(3-(7-((6-(4-((1-(5-((2-(2,6-Dioxopiperidin-3-yl)-1,3-dioxoisoindolin-4-yl)oxy)pentyl)-1H-1,2,3-triazol-4-yl)methyl)piperazin-1-v)pyridin-3-yl)amino)-1-methyl-2-oxo-1,4-dihydropyrimido[4,5-d]pyrimidin-3(2H)-yl)-4-methylphenyl)-3-(trifluoromethyl)benzamide]
logFC MAPK9 (P45984) [1, 9]: −2.161 | logFC [1, 10]: −1.344 | logFC MAPK9 [1, 10]: −1.344 | logFC [1, 11]: −1.045 | logFC MAPK9 [1, 11]: −1.045 | logFC [1, 12]: −0.929 | logFC MAPK9 [1, 12]: −0.929 | logFC [1, 13]: −1.414 | logFC MAPK9 [1, 13]: −1.414 | logFC [1, 14]: −0.5078 | logFC MAPK9 [1, 14]: −0.5078 | logFC [1, 15]: −1.488 | logFC MAPK9 [1, 15]: −1.488 | logFC [1, 16]: −0.7555 | logFC MAPK9 [1, 16]: −0.7555 | logFC [1, 17]: −1.498 | logFC MAPK9 [1, 17]: −1.498 | logFC [1, 18]: −2.137 | logFC MAPK9 [1, 18]: −2.137 | logFC [1, 19]: −0.8343 | logFC MAPK9 [1, 19]: −0.8343 | logFC MAPK9 ([1]; MAPK9 P45984, experiment wp152): −2.161 | logFC ([2]; experiment wp045): −0.3378 | logFC ([2]; experiment wp117): −0.3423 | logFC ([2]; experiment wp152): −0.4014 | logFC BUB1 (O43683) ([2]; Experiment wp045): −0.3378 | logFC BUB1 (O43683) ([2]; Experiment wp117): −0.3423 | logFC BUB1 (O43683) ([2]; Experiment wp152): −0.4014 | BUB1 degradation [2]: degraded | logFC PTK2B (Q14289) [3, 9]: −2.998 | logFC ([3]; 1 hr): −0.3955 | logFC ([3]; 2 hr): −1.235 | logFC ([3]; 4 hr): −2.341 | logFC ([3]; 8 hr): −2.599 | logFC PTK2B ([3]; accession Q14289-1, experiment wp045, direction of change down): −2.774 | logFC PTK2B ([3]; accession Q14289-1, experiment wp114, direction of change down): −1.358 | logFC PTK2B ([3]; accession Q14289-1, experiment wp160, 1 hr, direction of change down): −0.3955 | logFC PTK2B ([3]; accession Q14289-1, experiment wp160, 2 hr, direction of change down): −1.235 | logFC PTK2B ([3]; accession Q14289-1, experiment wp160, 4 hr, direction of change down): −2.341 | logFC PTK2B ([3]; accession Q14289-1, experiment wp160, 8 hr, direction of change down): −2.599 | logFC PTK2B ([3]; accession Q14289, experiment wp152, direction of change down): −2.998

Cc1ccc(NC(=O)c2cccc(C(F)(F)F)c2)cc1N1Cc2cnc(Nc3ccc(N4CCN(CCCOc5cccc6c5C(=O)N(C5CCC(=O)NC5=O)C6=O)CC4)nc3)nc2N(C)C1=O (stereo not shown) [DB0662]
logFC [1, 20]: −2.611 | logFC MAPK9 [1, 20]: −2.611 | logFC ([2]; experiment wp168): −0.3382 | logFC BUB1 (O43683) ([2]; Experiment wp168): −0.3382

Cc1ncsc1-c1ccc([C@H](C)NC(=O)[C@@H]2C[C@@H](O)CN2C(=O)[C@@H](NC(=O)CCOCCOCCN2CCN(c3ccc(Nc4ncc(Cl)c(Nc5ccccc5S(=O)(=O)C(C)C)n4)cc3)CC2)C(C)(C)C)cc1 [FMF.06.098.1]
logFC CDK12 ([4]; Accession Q9NYV4-1, experiment wp131): −0.5732 | logFC CDK12 ([4]; CDK12 (Q9NYV4-1), experiment wp131): −0.5732 | logFC [5]: −0.9016 and −1.137 and −0.9756 | logFC CDK7 ([5]; experiment wp108): −0.9016 | logFC CDK7 ([5]; experiment wp114): −1.137 | logFC CDK7 ([5]; experiment wp131): −0.9756 | logFC CDK13 ([6]; experiment wp108): −0.3664 | logFC CDK13 ([6]; experiment wp131): −0.4981 | logFC CDK13 (Q14004-1) ([6]; Experiment wp108): −0.3664 | logFC CDK13 (Q14004-1) ([6]; experiment wp131): −0.4981

CCc1cnn2c(N(Cc3ccc(N)nc3)C(=O)CCOCCOCCOCCNC(=O)CNc3cccc4c3C(=O)N(C3CCC(=O)NC3=O)C4=O)cc(N3CCCC[C@H]3CCO)nc12 (stereo partly shown) [MFH.5.115.2]
logFC ([7]; experiment wp076): −0.6277 | logFC STK17A ([7]; experiment wp076): −0.6277 | logFC ([2]; experiment wp076): −0.5159 | logFC BUB1 (O43683) ([2]; Experiment wp076): −0.5159

O=C1CCC(N2C(=O)c3cccc(NCCCCCCCCN4CCC(NC(=O)c5[nH]ncc5NC(=O)c5c(Cl)cccc5Cl)CC4)c3C2=O)C(=O)N1 (stereo not shown) [MFH.5.126.1]
logFC ([7]; experiment wp076): −0.8984 | logFC STK17A ([7]; experiment wp076): −0.8984 | logFC of CDK17 ([8]; experiment wp076): −0.5894 | logFC CDK17 (Q00537) ([8]; Experiment wp076): −0.5894 | logFC ([2]; experiment wp076): −0.9248 | logFC BUB1 (O43683) ([2]; Experiment wp076): −0.9248 | logFC CDK13 ([6]; experiment wp076): −0.4846 | logFC CDK13 (Q14004-1) ([6]; experiment wp076): −0.4846

Cc1ncsc1-c1ccc([C@H](C)NC(=O)[C@@H]2C[C@@H](O)CN2C(=O)[C@@H](NC(=O)CCCCCN2CCN(c3ccc(Nc4ncc5scc(-c6cccc(NS(C)(=O)=O)c6)c5n4)cc3)CC2)C(C)(C)C)cc1 [RSS0680, (2S,4R)-1-((S)-3,3-Dimethyl-2-(6-(4-(4-((7-(3-(methylsulfonamido)phenyl)thieno[3,2-d]pyrimidin-2-yl)amino)phenyl)piperazin-1-yl)hexanamido)butanoyl)-4-hydroxy-N—((S)-1-(4-(4-methylthiazol-5yl)phenyl)ethyl)pyrrolidine-2-carboxamide]
logFC ([7]; experiment wp080): −1.118 | logFC STK17A ([7]; experiment wp080): −1.118 | logFC ([7]; experiment wp117): −1.379 | logFC STK17A ([7]; experiment wp117): −1.379 | logFC [5]: −1.017 and −1.219 | logFC CDK7 ([5]; experiment wp080): −1.017 | logFC CDK7 ([5]; experiment wp117): −1.219 | logFC of CDK17 ([8]; experiment wp080): −0.7875 | logFC of CDK17 ([8]; experiment wp117): −0.7193 | logFC CDK17 (Q00537) ([8]; experiment wp080): −0.7875 | logFC CDK17 (Q00537) ([8]; experiment wp117): −0.7193

CC(C)S(=O)(=O)c1ccccc1Nc1nc(Nc2ccc(N3CCN(CCOCCNC(=O)CNc4cccc5c4C(=O)N(C4CCC(=O)NC4=O)C5=O)CC3)cc2)ncc1Cl (stereo not shown) [SK-3-91]
BUB1 degradation [2]: degraded

CC(C)S(=O)(=O)c1ccccc1Nc1nc(Nc2ccc(N3CCN(CCOCCOCCC(=O)NCCNc4cccc5c4CN(C4CCC(=O)NC4=O)C5=O)CC3)cc2)ncc1Cl (stereo not shown) [TL13.97]
logFC [5]: −1.05 | logFC CDK7 ([5]; experiment wp137): −1.05 | logFC CDK13 ([6]; experiment wp137): −0.7359 | logFC CDK13 (Q14004-1) ([6]; experiment wp137): −0.7359

NC(=O)c1c(F)cccc1Nc1nc(Nc2ccc(S(=O)(=O)NCCOCCOCCOCCOCCNc3cccc4c3C(=O)N(C3CCC(=O)NC3=O)C4=O)cc2)ncc1Br (stereo not shown) [TMX.02.138]
logFC CDK12 [4, 21]: −1.018 | logFC CDK12 [4, 22]: −1.018 | logFC [1, 23]: −1.518 | logFC MAPK9 [1, 23]: −1.518 | logFC [5]: −0.5239 | logFC CDK7 ([5]; experiment wp146): −0.5239 | logFC of CDK17 ([8]; experiment wp146): −1.361 | logFC CDK17 (Q00537) ([8]; experiment wp146): −1.361 | logFC [3]: −1.24 | logFC PTK2B [3, 24]: −1.24

Cc1cc(Nc2ncc(Br)c(Nc3cccc(F)c3C(N)=O)n2)ccc1S(=O)(=O)NCCOCCOCCOCCOCCNc1cccc2c1C(=O)N(C1CCC(=O)NC1=O)C2=O (stereo not shown) [TMX.02.174]
logFC CDK12 [4, 21]: −0.8562 | logFC CDK12 [4, 22]: −0.8562 | logFC [1, 23]: −1.031 | logFC MAPK9 [1, 23]: −1.031 | logFC [5]: −0.584 | logFC CDK7 ([5]; experiment wp146): −0.584 | logFC of CDK17 ([8]; experiment wp146): −1.42 | logFC CDK17 (Q00537) ([8]; experiment wp146): −1.42 | logFC [3]: −1.512 | logFC PTK2B [3, 24]: −1.512
